Earlier results, collected in US6051591A, “Diazabicyclooctane derivatives” (Merck Sharp & Dohme Ltd., priority 1995, dated 2000).

Assays:
[1] = tested on: human 5-HT1Dα and 5-HT1Dβ receptor subtypes; conditions: cf. WO-A-91/17174, Table 1
[2] = therapeutic doses

discrimination between human 5-HT1Dα and 5-HT1Dβ receptor subtypes [1]: barely discriminates
SMILES: CNS(=O)(=O)Cc1ccc2[nH]cc(CCN(C)C)c2c1 [sumatriptan]
adverse cardiovascular events in humans [2]: certain adverse cardiovascular events
